Experimental data from PMC6576746, “Rational discovery of dual-indication multi-target PDE/Kinase inhibitor for precision anti-cancer therapy using structural systems pharmacology” (PLoS Computational Biology, 2019).

What was measured:
Experiment in all cases: biochemical
Set-up in all cases: DiscoverX KinomeScan competition binding assay across human kinases; per cent of control at 10 and 100 uM
[1] = target: T1, RSK3(Kin.Dom.1-N-terminal) (Homo sapiens, UniProt Q15349); details: competition binding, % of control; read-out: Percent Control (100 uM Levosimendan)
T1 construct: gene RPS6KA2; Kin.Dom.1-N-terminal
In short: (§1)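 Binding is expressed as %control, normalised between positive and negative control signals. The compound (levosimendan) was tested at 10 μM and 100 μM in the DiscoverX KinomeScan competition binding format against human kinases.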

[2] = target: WNK2 (Homo sapiens, UniProt Q9Y3S1); details: competition binding, % of control; read-out: Percent Control (100 uM Levosimendan)
In short: as §1

[3] = target: SRMS (Homo sapiens, UniProt Q9H3Y6); details: competition binding, % of control; read-out: Percent Control (100 uM Levosimendan)
In short: as §1

[4] = target: GSK3B (Homo sapiens, UniProt P49841); details: competition binding, % of control; read-out: Percent Control (100 uM Levosimendan)
In short: as §1

[5] = target: T2, PFTAIRE2 (Homo sapiens, UniProt Q96Q40); details: competition binding, % of control; read-out: Percent Control (100 uM Levosimendan)
T2 construct: gene CDK15
In short: as §1

[6] = target: EPHB3 (Homo sapiens, UniProt P54753); details: competition binding, % of control; read-out: Percent Control (100 uM Levosimendan)
In short: as §1

[7] = target: T3, MYLK4 (Homo sapiens, UniProt Q86YV6); details: competition binding, % of control
T3 sequence (Q86YV6 1-388): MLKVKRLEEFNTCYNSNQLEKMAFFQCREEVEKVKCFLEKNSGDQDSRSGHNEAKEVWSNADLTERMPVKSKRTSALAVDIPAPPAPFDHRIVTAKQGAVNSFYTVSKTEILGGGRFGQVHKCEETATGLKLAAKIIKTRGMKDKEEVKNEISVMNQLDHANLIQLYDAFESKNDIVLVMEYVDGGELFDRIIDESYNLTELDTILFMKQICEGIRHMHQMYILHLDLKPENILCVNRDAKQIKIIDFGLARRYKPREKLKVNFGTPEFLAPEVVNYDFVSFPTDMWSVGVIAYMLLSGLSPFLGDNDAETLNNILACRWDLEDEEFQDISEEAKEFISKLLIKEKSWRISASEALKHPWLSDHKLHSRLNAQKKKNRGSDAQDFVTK
In short: as §1

[8] = target: T4, IKK-alpha (Homo sapiens, UniProt O15111); details: competition binding, % of control; read-out: Percent Control (100 uM Levosimendan)
T4 construct: gene CHUK
In short: as §1

[9] = target: T5, ABL1(T315I)-nonphosphorylated (Homo sapiens, UniProt P00519, T315I); details: competition binding, % of control; read-out: Percent Control (100 uM Levosimendan)
T5 construct: nonphosphorylated
In short: as §1

[10] = target: PAK4 (Homo sapiens, UniProt O96013); details: competition binding, % of control; read-out: Percent Control (100 uM Levosimendan)
In short: as §1

[11] = target: DYRK2 (Homo sapiens, UniProt Q92630); details: competition binding, % of control; read-out: Percent Control (100 uM Levosimendan)
In short: as §1

[12] = target: TSSK1B (Homo sapiens, UniProt Q9BXA7); details: competition binding, % of control; read-out: Percent Control (100 uM Levosimendan)
In short: as §1

[13] = target: T6, RSK1(Kin.Dom.2-C-terminal) (Homo sapiens, UniProt Q15418); details: competition binding, % of control; read-out: Percent Control (100 uM Levosimendan)
T6 construct: gene RPS6KA1; Kin.Dom.2-C-terminal
In short: as §1

[14] = target: RET(M918T) (Homo sapiens, UniProt P07949, M918T); details: competition binding, % of control; read-out: Percent Control (100 uM Levosimendan)
In short: as §1

[15] = target: HCK (Homo sapiens, UniProt P08631); details: competition binding, % of control
In short: as §1

[16] = target: T7, OSR1 (Homo sapiens, UniProt O95747); details: competition binding, % of control; read-out: Percent Control (100 uM Levosimendan)
T7 construct: gene OXSR1
In short: as §1

[17] = read-out: Percent Control (10 uM Levosimendan)
[18] = read-out: Percent Control (100 uM Levosimendan)

HCK, sequence (P08631 whole entry): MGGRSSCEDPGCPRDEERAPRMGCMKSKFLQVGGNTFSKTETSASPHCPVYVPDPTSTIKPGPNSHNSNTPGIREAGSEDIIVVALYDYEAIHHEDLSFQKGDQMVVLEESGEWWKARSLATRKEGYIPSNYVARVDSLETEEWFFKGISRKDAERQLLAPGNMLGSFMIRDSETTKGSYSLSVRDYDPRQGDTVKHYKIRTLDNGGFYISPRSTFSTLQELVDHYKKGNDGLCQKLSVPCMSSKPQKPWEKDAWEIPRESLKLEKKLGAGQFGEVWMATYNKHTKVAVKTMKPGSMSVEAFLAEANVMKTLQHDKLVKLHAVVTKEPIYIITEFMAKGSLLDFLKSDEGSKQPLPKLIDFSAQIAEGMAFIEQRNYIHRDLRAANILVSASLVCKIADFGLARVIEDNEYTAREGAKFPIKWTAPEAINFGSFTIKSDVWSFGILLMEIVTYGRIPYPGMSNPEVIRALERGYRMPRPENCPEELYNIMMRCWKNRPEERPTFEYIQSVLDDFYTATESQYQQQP
EPHB3, sequence (P54753 whole entry): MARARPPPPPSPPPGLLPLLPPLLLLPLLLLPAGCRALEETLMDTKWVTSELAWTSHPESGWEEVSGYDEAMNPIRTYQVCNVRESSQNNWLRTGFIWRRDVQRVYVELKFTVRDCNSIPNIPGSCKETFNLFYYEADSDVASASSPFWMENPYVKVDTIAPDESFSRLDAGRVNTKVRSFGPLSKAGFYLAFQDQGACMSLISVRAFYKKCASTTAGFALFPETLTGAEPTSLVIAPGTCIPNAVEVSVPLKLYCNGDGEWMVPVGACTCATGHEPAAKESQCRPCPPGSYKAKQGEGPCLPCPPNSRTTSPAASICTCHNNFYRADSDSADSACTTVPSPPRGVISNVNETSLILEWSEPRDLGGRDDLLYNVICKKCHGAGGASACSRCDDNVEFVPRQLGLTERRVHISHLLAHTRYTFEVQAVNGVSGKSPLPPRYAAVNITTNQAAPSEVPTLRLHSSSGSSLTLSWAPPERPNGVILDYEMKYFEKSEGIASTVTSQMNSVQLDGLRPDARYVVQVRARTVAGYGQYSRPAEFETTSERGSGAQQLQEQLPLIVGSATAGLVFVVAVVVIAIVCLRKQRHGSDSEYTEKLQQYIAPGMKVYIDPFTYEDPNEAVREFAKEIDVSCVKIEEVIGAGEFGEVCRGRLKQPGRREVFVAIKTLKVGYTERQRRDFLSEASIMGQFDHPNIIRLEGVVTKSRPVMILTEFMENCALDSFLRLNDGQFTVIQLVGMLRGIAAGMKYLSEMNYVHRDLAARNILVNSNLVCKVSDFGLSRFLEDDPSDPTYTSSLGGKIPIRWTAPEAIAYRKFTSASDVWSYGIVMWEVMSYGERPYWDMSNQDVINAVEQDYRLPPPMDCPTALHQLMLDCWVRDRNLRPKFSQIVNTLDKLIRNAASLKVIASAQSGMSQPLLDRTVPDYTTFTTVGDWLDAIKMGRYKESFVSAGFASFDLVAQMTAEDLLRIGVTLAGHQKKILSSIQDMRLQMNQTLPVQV
T7 sequence (O95747 whole entry): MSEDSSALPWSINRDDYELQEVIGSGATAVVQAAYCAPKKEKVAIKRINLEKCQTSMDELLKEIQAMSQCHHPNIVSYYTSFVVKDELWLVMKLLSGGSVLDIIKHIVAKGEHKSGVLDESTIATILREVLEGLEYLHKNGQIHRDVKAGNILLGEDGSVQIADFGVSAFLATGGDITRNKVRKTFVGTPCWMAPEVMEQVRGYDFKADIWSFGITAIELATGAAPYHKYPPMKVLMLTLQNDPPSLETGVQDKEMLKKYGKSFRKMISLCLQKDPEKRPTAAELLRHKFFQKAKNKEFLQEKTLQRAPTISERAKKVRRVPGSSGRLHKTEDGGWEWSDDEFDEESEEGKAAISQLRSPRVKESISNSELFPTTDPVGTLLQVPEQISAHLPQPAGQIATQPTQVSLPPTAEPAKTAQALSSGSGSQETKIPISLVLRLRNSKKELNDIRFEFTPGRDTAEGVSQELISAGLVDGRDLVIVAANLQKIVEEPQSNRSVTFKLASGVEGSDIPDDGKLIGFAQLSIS
T6 sequence (Q15418 whole entry): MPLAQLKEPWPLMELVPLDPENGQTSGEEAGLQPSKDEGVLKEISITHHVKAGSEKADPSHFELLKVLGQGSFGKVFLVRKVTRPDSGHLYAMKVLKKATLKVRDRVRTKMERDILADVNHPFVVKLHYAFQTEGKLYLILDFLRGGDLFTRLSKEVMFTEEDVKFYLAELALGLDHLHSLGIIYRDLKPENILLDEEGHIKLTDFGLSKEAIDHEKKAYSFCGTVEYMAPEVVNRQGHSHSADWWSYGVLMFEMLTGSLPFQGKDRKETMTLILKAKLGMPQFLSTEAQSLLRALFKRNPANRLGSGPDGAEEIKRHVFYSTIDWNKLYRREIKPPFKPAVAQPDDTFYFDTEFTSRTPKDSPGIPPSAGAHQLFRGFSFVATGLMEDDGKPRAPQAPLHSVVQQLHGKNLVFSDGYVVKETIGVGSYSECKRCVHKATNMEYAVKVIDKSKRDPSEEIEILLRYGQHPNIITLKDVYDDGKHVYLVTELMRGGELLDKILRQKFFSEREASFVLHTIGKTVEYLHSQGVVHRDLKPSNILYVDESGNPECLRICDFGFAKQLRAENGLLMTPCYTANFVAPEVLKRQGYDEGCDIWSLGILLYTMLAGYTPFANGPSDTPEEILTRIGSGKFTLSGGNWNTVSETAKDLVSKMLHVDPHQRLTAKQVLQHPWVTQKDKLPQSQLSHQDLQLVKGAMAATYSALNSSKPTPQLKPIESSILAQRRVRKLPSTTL
TSSK1B, sequence (Q9BXA7 whole entry): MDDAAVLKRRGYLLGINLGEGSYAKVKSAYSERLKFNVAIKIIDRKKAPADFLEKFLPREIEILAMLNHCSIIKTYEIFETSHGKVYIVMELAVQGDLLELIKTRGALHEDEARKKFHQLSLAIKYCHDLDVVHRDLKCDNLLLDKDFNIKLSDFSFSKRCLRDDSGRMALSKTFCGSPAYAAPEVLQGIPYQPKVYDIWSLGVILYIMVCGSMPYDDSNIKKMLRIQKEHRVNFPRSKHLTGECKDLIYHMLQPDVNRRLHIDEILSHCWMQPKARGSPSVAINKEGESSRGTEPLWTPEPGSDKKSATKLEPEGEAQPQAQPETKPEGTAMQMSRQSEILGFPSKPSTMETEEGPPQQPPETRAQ
GSK3B, sequence (P49841 whole entry): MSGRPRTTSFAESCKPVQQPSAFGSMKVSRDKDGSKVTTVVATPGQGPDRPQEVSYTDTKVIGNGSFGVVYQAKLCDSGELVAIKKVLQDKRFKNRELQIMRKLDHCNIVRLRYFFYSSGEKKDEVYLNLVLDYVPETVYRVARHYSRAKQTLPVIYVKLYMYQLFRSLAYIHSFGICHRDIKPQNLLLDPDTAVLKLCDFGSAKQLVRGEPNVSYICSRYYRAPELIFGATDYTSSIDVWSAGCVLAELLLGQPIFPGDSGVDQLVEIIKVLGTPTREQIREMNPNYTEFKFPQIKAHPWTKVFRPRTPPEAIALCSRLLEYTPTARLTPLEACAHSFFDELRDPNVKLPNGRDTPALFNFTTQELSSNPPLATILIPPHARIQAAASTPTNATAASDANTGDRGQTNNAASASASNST
SRMS, sequence (Q9H3Y6 whole entry): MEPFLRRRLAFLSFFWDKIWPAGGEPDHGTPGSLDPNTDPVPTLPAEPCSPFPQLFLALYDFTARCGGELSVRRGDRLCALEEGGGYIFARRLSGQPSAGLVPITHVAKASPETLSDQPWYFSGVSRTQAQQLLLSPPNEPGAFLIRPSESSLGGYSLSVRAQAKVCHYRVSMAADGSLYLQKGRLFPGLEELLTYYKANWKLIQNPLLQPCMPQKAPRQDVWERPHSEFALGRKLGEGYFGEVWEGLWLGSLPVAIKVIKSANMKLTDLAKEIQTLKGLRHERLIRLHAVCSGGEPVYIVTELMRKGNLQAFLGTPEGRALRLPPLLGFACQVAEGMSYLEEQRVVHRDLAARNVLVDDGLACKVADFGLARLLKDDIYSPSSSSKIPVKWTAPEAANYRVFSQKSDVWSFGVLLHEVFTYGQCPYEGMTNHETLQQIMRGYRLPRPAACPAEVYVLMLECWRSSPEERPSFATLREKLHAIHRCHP
PAK4, sequence (O96013 whole entry): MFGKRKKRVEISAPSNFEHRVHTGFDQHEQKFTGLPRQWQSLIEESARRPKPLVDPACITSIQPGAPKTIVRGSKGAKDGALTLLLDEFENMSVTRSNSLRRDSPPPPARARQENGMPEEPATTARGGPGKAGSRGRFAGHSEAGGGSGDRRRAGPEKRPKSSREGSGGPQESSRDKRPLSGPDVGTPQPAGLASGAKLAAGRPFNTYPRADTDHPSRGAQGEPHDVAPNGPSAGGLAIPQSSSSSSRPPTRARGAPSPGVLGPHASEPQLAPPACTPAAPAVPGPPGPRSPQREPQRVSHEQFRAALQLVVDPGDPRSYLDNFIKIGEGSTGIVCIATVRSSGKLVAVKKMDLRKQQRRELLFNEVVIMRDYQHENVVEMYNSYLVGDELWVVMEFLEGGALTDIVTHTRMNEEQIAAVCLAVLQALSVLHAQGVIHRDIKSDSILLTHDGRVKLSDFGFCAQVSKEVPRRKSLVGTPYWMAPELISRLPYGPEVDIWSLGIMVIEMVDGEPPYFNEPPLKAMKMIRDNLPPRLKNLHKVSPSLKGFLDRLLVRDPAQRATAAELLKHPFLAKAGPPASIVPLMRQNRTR

- remaining binding at 100 µM [1]: 100%
- remaining binding at 100 µM [2]: 98%
- remaining binding at 100 µM [3]: 100%
- remaining binding at 100 µM [4]: 100%
- remaining binding at 100 µM [5]: 85%
- remaining binding at 100 µM [6]: 96%
- remaining binding at 10 µM [7, 17]: 85%
- remaining binding at 100 µM [7, 18]: 24%
- remaining binding at 100 µM [8]: 59%
- remaining binding at 100 µM [9]: 100%
- remaining binding at 100 µM [10]: 89%
- remaining binding at 100 µM [11]: 85%
- remaining binding at 100 µM [12]: 85%
- remaining binding at 100 µM [13]: 100%
- remaining binding at 100 µM [14]: 90%
- remaining binding at 10 µM [15, 17]: 98%
- remaining binding at 100 µM [15, 18]: 24%
- remaining binding at 100 µM [16]: 100%
SMILES: C[C@@H]1CC(=O)NN=C1c1ccc(NN=C(C#N)C#N)cc1 [levosimendan]
